DBAASP
In brackets after ≈: the same amount, converted by molar mass.

What was measured:
Assay in all cases: ≥ marks a high value that may be exact or a test limit, other limits are often not marked, values filed in µg/mL are converted to µM
Acinetobacter baumannii = system: Acinetobacter baumannii
Aeromonas hydrophila = system: Aeromonas hydrophila
Alcaligenes faecalis = system: Alcaligenes faecalis
Bacillus megaterium = system: Bacillus megaterium
[1] = system: Dermacoccus nishinomiyaensis
Enterobacter cloacae = system: Enterobacter cloacae
Escherichia coli D31 = system: Escherichia coli D31
Haemophilus Influenzae = system: Haemophilus Influenzae
Klebsiella aerogenes = system: Klebsiella aerogenes
[2] = system: Micrococcus luteus IFO 12708
Pseudomonas aeruginosa = system: Pseudomonas aeruginosa
Salmonella typhimurium = system: Salmonella typhimurium
Staphylococcus aureus = system: Staphylococcus aureus
[3] = system: Staphylococcus epidermidis
[4] = system: Staphylococcus haemolyticus
[5] = system: Staphylococcus saprophyticus
Vibrio alginolyticus = system: Vibrio alginolyticus
[6] = system: Bacteroides fragilis ATCC 25285
Bacteroides fragilis = system: Bacteroides fragilis
[7] = system: Candida albicans ATCC 90028
[8] = system: Clostridium perfringens ATCC 10543
Clostridium septicum = system: Clostridium septicum
[9] = system: Clostridium tertium ATCC 19465
[10] = system: Cutibacterium acnes ATCC 11828
Cutibacterium acnes = system: Cutibacterium acnes
[11] = system: Enterobacter cloacae HNTCC 53001
[12] = system: Enterococcus faecalis ATCC 29212
[13] = system: Escherichia coli ATCC 25922
Fusobacterium nucleatum = system: Fusobacterium nucleatum
[14] = system: Fusobacterium varium ATCC 27725
[15] = system: Klebsiella pneumoniae KK3 9904
[16] = system: Peptoniphilus asaccharolyticus ATCC 29743
[17] = system: Peptostreptococcus anaerobius
[18] = system: Prevotella melaninogenica
[19] = system: Proteus mirabilis ATCC 25933
[20] = system: Pseudomonas aeruginosa ATCC 27853
[21] = system: Salmonella enterica subsp. enterica serovar Typhimurium LT2
[22] = system: Staphylococcus aureus NCTC 8325
[23] = system: Staphylococcus aureus T17/13
[24] = system: Staphylococcus aureus T7/5
[25] = system: Staphylococcus epidermidis RP62A

Work on `CC(C)C[C@H](NC(=O)[C@H](Cc1c[nH]c2ccccc12)NC(=O)[C@H](C)NC(=O)CNC(=O)[C@@H](N)CC(C)C)C(=O)N[C@@H](C)C(=O)NCC(=O)N[C@@H](CCCCN)C(=O)N[C@H](C(=O)N[C@@H](C)C(=O)NCC(=O)N[C@H](C(=O)N[C@H](C(=O)N[C@@H](C)C(=O)N[C@H](C(=O)N[C@@H](Cc1ccc(O)cc1)C(=O)N[C@@H](C)C(=O)N[C@@H](Cc1c[nH]c2ccccc12)C(=O)N[C@@H](CC(N)=O)C(=O)N[C@@H](CCCN=C(N)N)C(=O)N[C@@H](Cc1ccc(O)cc1)C(=O)N[C@H](C(N)=O)C(C)C)[C@@H](C)O)C(C)C)[C@@H](C)O)C(C)C` [LGAWLAGKVAGTVATYAWNRYV] yielded an MIC (Acinetobacter baumannii) of 25 µM (≈ 59.2 µg/mL), an MIC (Aeromonas hydrophila) of 25 µM (≈ 59.2 µg/mL) and an MIC (Alcaligenes faecalis) of 25 µM (≈ 59.2 µg/mL). The MIC (Bacillus megaterium) was 25 µM (≈ 59.2 µg/mL), the MIC [1] was 0.566 µM (≈ 1.34 µg/mL) and the MIC (Enterobacter cloacae) was 25 µM (≈ 59.2 µg/mL). The MIC (Escherichia coli D31) was 25 µM (≈ 59.2 µg/mL), the MIC (Haemophilus Influenzae) was 25 µM (≈ 59.2 µg/mL) and the MIC (Klebsiella aerogenes) was 25 µM (≈ 59.2 µg/mL). It also gave an MIC [2] of 0.566 µM (≈ 1.34 µg/mL), an MIC (Pseudomonas aeruginosa) of over 25 µM and an MIC (Salmonella typhimurium) of 25 µM (≈ 59.2 µg/mL). For the same molecule, the MIC (Staphylococcus aureus) was 4.24 µM (≈ 10 µg/mL), the MIC [3] was 4.24 µM (≈ 10 µg/mL) and the MIC [4] was 4.24 µM (≈ 10 µg/mL). For the same molecule, the MIC [5] was 4.24 µM (≈ 10 µg/mL) and the MIC (Vibrio alginolyticus) was 1.13 µM (≈ 2.68 µg/mL).
`CC[C@H](C)[C@H](NC(=O)[C@@H](N)CCCN=C(N)N)C(=O)NCC(=O)N[C@H](C(=O)N[C@@H](CC(C)C)C(=O)N[C@@H](CC(C)C)C(=O)N[C@@H](C)C(=O)N[C@@H](CCCN=C(N)N)C(=O)N[C@@H](CC(C)C)C(=O)N1CCC[C@H]1C(=O)N[C@@H](CCCCN)C(=O)N[C@@H](CC(C)C)C(=O)N[C@@H](Cc1ccccc1)C(=O)N[C@@H](CO)C(=O)N[C@@H](CC(C)C)C(=O)N[C@@H](Cc1ccccc1)C(=O)N[C@@H](CCCCN)C(=O)N[C@@H](CC(C)C)C(=O)N[C@@H](CCSC)C(=O)NCC(=O)N[C@@H](CCCCN)C(=O)N[C@@H](CCCCN)C(=O)N[C@H](C(=O)O)C(C)C)C(C)C` [RIGVLLARLPKLFSLFKLMGKKV] showed an MIC [6] of at least 50 µM, an MIC (Bacteroides fragilis) of at least 50 µM and an MIC [7] of at least 80 µM. It also gave an MIC [8] of 12.5 µM (≈ 32.9 µg/mL), an MIC (Clostridium septicum) of at least 50 µM and an MIC [9] of 12.5 µM (≈ 32.9 µg/mL). For the same molecule, the MIC [10] was 12.5 µM (≈ 32.9 µg/mL), the MIC (Cutibacterium acnes) was 6 µM (≈ 15.8 µg/mL) and the MIC [11] was 6 µM (≈ 15.8 µg/mL). For the same molecule, the MIC [12] was 12.5 µM (≈ 32.9 µg/mL), the MIC [13] was 2.5 µM (≈ 6.57 µg/mL) and the MIC (Fusobacterium nucleatum) was at least 50 µM. The MIC [14] was at least 50 µM, the MIC [15] was 12.5 µM (≈ 32.9 µg/mL) and the MIC [16] was at least 50 µM. For the same molecule, the MIC [17] was 25 µM (≈ 65.7 µg/mL), the MIC [18] was 6 µM (≈ 15.8 µg/mL) and the MIC [19] was at least 100 µM. For the same molecule, the MIC [20] was 6 µM (≈ 15.8 µg/mL), the MIC [21] was 25 µM (≈ 65.7 µg/mL) and the MIC [22] was at least 40 µM. It also gave an MIC [23] of 10 µM (≈ 26.3 µg/mL), an MIC [24] of 20 µM (≈ 52.6 µg/mL) and an MIC [25] of 6 µM (≈ 15.8 µg/mL).
